{"source": "patent US7179825B2", "about": "“Retinoic acid mimetic anilides” (Janssen Pharmaceutica N.V., priority 1997, dated 2007)"}
{"test_system": "Ovariectomized rats", "assay": "Vaginal keratinization test on ovariectomized rats (Example C.2)", "type": "in vivo", "conditions": "Rattus norvegicus, po, estradiol undecylate induced keratinization, per os once daily on days 1-3, active dose = 50% of rats show complete suppression, read-out: LAD (lowest active dose)", "description": "(§1) The property to delay the metabolism of retinoic acid can be evidenced in various in vitro and in vivo experiments. A particular in vitro procedure is described in example C.1 and tests the inhibitory activity of the compounds of formula (I) on the metabolism of retinoic acid in human breast cancer cells. The compounds of the present invention were also effective in suppressing induced vaginal keratinization effects in ovariectomized rats as is described in example C.2.\n(§2) “Vaginal Keratinization Test on Ovariectomized Rats”\n(§3) Ovariectomized rats were injected subcutaneously with a sesame oil solution containing 100 μg of estradiol undecylate in a volume of 0.1 ml per 100 g body weight and control animals were injected with sesame oil. On day one, two and three, test animals were treated once daily with a per os dose of the test compound and control animals with the drug vehicle (PEG 200). One day after the last treatment, the animals were sacrificed and their vaginas were processed for histological evaluation according to the method described in J. Pharmacol. Exp. Ther. 261(2), 773–779 (1992). A dose at which 50% of the tested rats show complete suppression of the estradiol undecylate induced keratinization effects is defined as an active dose. Table 23 lists the lowest active dose (LAD in mg/kg) of the compounds of formula (I) which were tested.", "units": {"minimal effective dose": "mg/kg"}}
{"compound": "CCC(CC)C(c1ccc(NC(=S)Nc2nc3ccccc3s2)cc1)n1ccnc1", "note": "(racemic) [Compound 705, (±)-N-(2-benzothiazolyl)-N′-[4-[1-(1H-imidazol-1-yl)-2-ethylbutyl]phenyl]-thiourea]", "minimal effective dose": "> 5"}
{"test_system": "Ovariectomized rats", "assay": "Vaginal keratinization test on ovariectomized rats (Example C.2)", "type": "in vivo", "conditions": "estradiol undecylate induced keratinization, per os once daily on days 1-3, active dose = 50% of rats show complete suppression", "description": "as §1, §2, §3", "units": {"LAD (lowest active dose)": "mg/kg"}}
{"compound": "COc1ccc(CC(=O)Nc2ccc(C(C(C)N(C)C)n3ccnc3)cc2)cc1Cl", "note": "(single isomer, unassigned) [Compound 304]", "LAD (lowest active dose)": ">2.50"}
{"compound": "CC(C(c1ccc(NC(=O)N2CCN(C)CC2)cc1)n1ccnc1)N(C)C", "note": "(single isomer, unassigned) [Compound 349]", "LAD (lowest active dose)": ">2.50"}
{"compound": "CC(C(c1ccc(NC(=O)Cc2ccc3c(c2)OCCO3)cc1)n1cncn1)N(C)C", "note": "(single isomer, unassigned) [Compound 333]", "LAD (lowest active dose)": ">2.50"}
{"compound": "COc1cc(CC(=O)Nc2ccc(C(C(C)N(C)C)n3ccnc3)cc2)ccc1C", "note": "(single isomer, unassigned) [Compound 315]", "LAD (lowest active dose)": ">2.50"}
{"compound": "COc1ccc(CC(=O)Nc2ccc(C(C(C)N(C)C)n3cncn3)cc2)cc1C", "note": "(single isomer, unassigned) [Compound 281]", "LAD (lowest active dose)": ">2.50"}
{"compound": "CC(=O)Nc1ccc(C(C(C)N(C)C)n2ccnc2)cc1.O", "note": "(single isomer, unassigned) [Compound 551]", "LAD (lowest active dose)": ">2.50"}
{"compound": "CCC(CC)C(CC)(c1ccc(NC(=O)Cc2ccc(Cl)cc2)cc1)n1ccnc1", "note": "(racemic) [Compound 768]", "LAD (lowest active dose)": ">2.50"}
{"compound": "COc1ccc(CCCC(=O)Nc2ccc(C(C(C)N(C)C)n3ccnc3)cc2)cc1OC.O=C(O)C(=O)O", "note": "(single isomer, unassigned) [Compound 431]", "LAD (lowest active dose)": ">2.50"}
{"compound": "COc1cc(CC(=O)Nc2ccc(C(C(C)N(C)C)n3ccnc3)cc2)ccc1C", "note": "(single isomer, unassigned) [Compound 314]", "LAD (lowest active dose)": ">2.50"}
{"compound": "COc1ccc(CCC(=O)Nc2ccc(C(C(C)N(C)C)n3ccnc3)cc2)cc1OC", "note": "(single isomer, unassigned) [Compound 429]", "LAD (lowest active dose)": ">2.50"}
{"compound": "COc1ccc(C(=O)Nc2ccc(C(C(C)N(C)C)n3ccnc3)cc2)cc1OC", "note": "(single isomer, unassigned) [Compound 341]", "LAD (lowest active dose)": ">2.50"}
{"compound": "CCOC(=O)C(C)C(c1ccc(NC(=O)Cc2ccc(OC)c(OC)c2)cc1)n1ccnc1", "note": "(single isomer, unassigned) [Compound 381]", "LAD (lowest active dose)": ">2.50"}
{"compound": "CCOc1ccc(CC(=O)Nc2ccc(C(C(C)N(C)C)n3cncn3)cc2)cc1OCC", "note": "(single isomer, unassigned) [Compound 285]", "LAD (lowest active dose)": ">2.50"}
{"compound": "COc1ccc(CC(=O)N(C)c2ccc(C(C(C)N(C)C)n3cncn3)cc2)cc1OC", "note": "(single isomer, unassigned) [Compound 437]", "LAD (lowest active dose)": ">2.50"}
{"compound": "COc1ccc(CC(=O)Nc2ccc(C(CN(C)C)n3ccnc3)cc2)cc1OC", "note": "(stereo not drawn) [Compound 380]", "LAD (lowest active dose)": ">2.50"}
{"compound": "COc1ccc(C(=O)Nc2ccc(C(CN(C)C)n3ccnc3)cc2)cc1OC", "note": "(racemic) [Compound 434]", "LAD (lowest active dose)": ">2.50"}
{"compound": "CCN(CC)C(C)C(c1ccc(NC(C)=O)cc1)n1cncn1", "note": "(single isomer, unassigned) [Compound 647]", "LAD (lowest active dose)": ">5.00"}
{"compound": "COc1ccc(CC(=O)Nc2ccc(C(C(C)N(C)C)n3ccnc3)cc2)cc1OC", "note": "(single isomer, unassigned) [Compound 379]", "LAD (lowest active dose)": ">2.50"}
{"compound": "CC(C(c1ccc(NC(=O)Cc2ccc(O)c(Cl)c2)cc1)n1cncn1)N(C)C", "note": "(single isomer, unassigned) [Compound 284]", "LAD (lowest active dose)": 2.50}
{"compound": "CCC(C(c1ccc(NC(C)=O)cc1)n1ccnc1)N(C)C", "note": "(single isomer, unassigned) [Compound 557]", "LAD (lowest active dose)": ">5.00"}
{"compound": "CCC(c1ccc(NC(C)=O)cc1)(C(C)C)n1ccnc1", "note": "(stereo not drawn) [Compound 754]", "LAD (lowest active dose)": 10.00}
{"compound": "COc1cc(CC(=O)Nc2ccc(C(C(C)N(C)C)n3cncn3)cc2)cc(OC)c1OC", "note": "(single isomer, unassigned) [Compound 630]", "LAD (lowest active dose)": ">2.50"}
{"compound": "CC(C(c1ccc(NC(=O)Cc2ccc(Cl)cc2)cc1)n1cncn1)N(C)C", "note": "(single isomer, unassigned) [Compound 784]", "LAD (lowest active dose)": ">5.00"}
{"compound": "CC(C)C(c1ccc(NC(=O)c2cc3ccccc3[nH]2)cc1)n1ccnc1", "note": "(racemic) [Compound 178]", "LAD (lowest active dose)": ">10.00"}
{"compound": "COc1ccc(CC(=O)Nc2ccc(C(CCO)n3ccnc3)cc2)cc1OC", "note": "(stereo not drawn) [Compound 403]", "LAD (lowest active dose)": ">5.00"}
{"compound": "COc1ccc(CCCC(=O)Nc2ccc(C(C(C)N(C)C)n3cncn3)cc2)cc1OC", "note": "(single isomer, unassigned) [Compound 329]", "LAD (lowest active dose)": ">2.50"}
{"compound": "CCC(CC)C(c1ccc(NC(=O)Cc2c(OC)cccc2OC)cc1)n1ccnc1", "note": "(racemic) [Compound 114]", "LAD (lowest active dose)": 2.50}
{"compound": "CC(=O)Nc1ccc(C(C(C)N(Cc2ccccc2)Cc2ccccc2)n2ccnc2)cc1", "note": "(mixture of isomers) [Compound 572]", "LAD (lowest active dose)": ">5.00"}
{"compound": "CCOc1ccc(CC(=O)Nc2ccc(C(C(C)N(C)C)n3ccnc3)cc2)cc1OCC", "note": "(single isomer, unassigned) [Compound 300]", "LAD (lowest active dose)": ">2.50"}
{"compound": "COc1ccc(C(=O)Nc2ccc(C(C(C)N(C)C)n3ccnc3)cc2)cc1OC", "note": "(single isomer, unassigned) [Compound 342]", "LAD (lowest active dose)": ">2.50"}
{"compound": "CC(C(c1ccc(NC(=O)Cc2ccc(Cl)cc2)cc1)n1cncn1)N(C)C", "note": "(single isomer, unassigned) [Compound 283]", "LAD (lowest active dose)": 2.50}
{"compound": "CC(C(c1ccc(NC(=O)Oc2ccccc2)cc1)n1ccnc1)N(C)C", "note": "(single isomer, unassigned) [Compound 343]", "LAD (lowest active dose)": ">2.50"}
{"compound": "CCOc1ccc(CCC(=O)Nc2ccc(C(C(C)N(C)C)n3ccnc3)cc2)cc1", "note": "(stereo not drawn) [Compound 348]", "LAD (lowest active dose)": ">2.50"}
{"compound": "CCCCCC(C)C(c1ccc(NC(=O)/C(C)=C/c2ccccc2)cc1)n1ccnc1", "note": "(single isomer, unassigned) [Compound 487]", "LAD (lowest active dose)": ">5.00"}
{"compound": "COc1cc(CC(=O)Nc2ccc(C(C(C)N(C)C)n3ccnc3)cc2)cc(OC)c1OC", "note": "(single isomer, unassigned) [Compound 302]", "LAD (lowest active dose)": ">2.50"}
{"compound": "CCC(CC)C(c1ccc(NC(=O)CN2CCCCC2)cc1)n1ccnc1", "note": "(racemic) [Compound 43]", "LAD (lowest active dose)": 2.50}
{"compound": "COc1ccc(CC(=O)Nc2ccc(C(C(C)CN(C)C)n3ccnc3)cc2)cc1OC", "note": "(single isomer, unassigned) [Compound 392]", "LAD (lowest active dose)": ">5.00"}
{"compound": "CCC(CC)C(c1ccc(NC(=S)Nc2nc3ccccc3s2)cc1)n1cncn1", "note": "(racemic) [Compound 706]", "LAD (lowest active dose)": 5.00}
{"compound": "CCC(CC)C(c1ccc(NC(=O)c2ccccc2)cc1)n1cncn1", "note": "(stereo not drawn) [Compound 3]", "LAD (lowest active dose)": ">2.50"}
{"compound": "CCC(CC)C(c1ccc(NC(=O)Cc2ccc(OC)c(Cl)c2)cc1)n1cncn1", "note": "(racemic) [Compound 74]", "LAD (lowest active dose)": 2.50}
{"compound": "CC(C(c1ccc(NC(=O)Cc2ccc3c(c2)OCCO3)cc1)n1ccnc1)N(C)C", "note": "(single isomer, unassigned) [Compound 338]", "LAD (lowest active dose)": ">2.50"}
{"compound": "CC(=O)Nc1ccc(C(C(C)N(C)C)n2ccnc2)cc1", "note": "(single isomer, unassigned) [Compound 552]", "LAD (lowest active dose)": ">2.50"}
{"compound": "COc1ccc(CCC(=O)Nc2ccc(C(C(C)N(C)C)n3cncn3)cc2)cc1OC", "note": "(single isomer, unassigned) [Compound 328]", "LAD (lowest active dose)": ">2.50"}
{"compound": "CCC(C)C(c1ccc(NC(=O)Cc2ccc(Cl)cc2)cc1)n1cncn1", "note": "(stereo not drawn) [Compound 626]", "LAD (lowest active dose)": 2.50}
{"compound": "CCCCN(C)C(C)C(c1ccc(NC(=O)Cc2ccc(OC)c(OC)c2)cc1)n1ccnc1", "note": "(single isomer, unassigned) [Compound 406]", "LAD (lowest active dose)": ">5.00"}
{"compound": "CCC(CC)C(c1ccc(NC(=O)C2CCN(C)CC2)cc1)n1ccnc1", "note": "(racemic) [Compound 59]", "LAD (lowest active dose)": ">2.50"}
{"compound": "COc1ccc(CC(=O)Nc2ccc(C(C(C)N(C)C)n3cncn3)cc2)cc1OC", "note": "(single isomer, unassigned) [Compound 287]", "LAD (lowest active dose)": ">2.50"}
{"compound": "COc1ccc(CC(=O)Nc2ccc(C(C(C)N(C)C)n3cncn3)cc2)cc1Cl", "note": "(single isomer, unassigned) [Compound 279]", "LAD (lowest active dose)": 2.50}
{"compound": "COc1ccc(CCC(=O)Nc2ccc(C(C(C)N(C)C)n3cncn3)cc2)cc1OC", "note": "(single isomer, unassigned) [Compound 629]", "LAD (lowest active dose)": ">2.50"}
{"compound": "CCN(C)C(C)C(c1ccc(NC(C)=O)cc1)n1ccnc1", "note": "(mixture of isomers) [Compound 566]", "LAD (lowest active dose)": 5.00}
{"compound": "COc1ccc(CC(=O)Nc2ccc(C(C(C)N(C)CCN(C)C)n3ccnc3)cc2)cc1OC", "note": "(single isomer, unassigned) [Compound 407]", "LAD (lowest active dose)": ">5.00"}
{"compound": "CC(=O)Nc1ccc(C(C(C)N(C)C)n2cncn2)cc1", "note": "(single isomer, unassigned) [Compound 627]", "LAD (lowest active dose)": ">2.50"}
{"compound": "CCC(CC)C(c1ccc(NC(=O)CN2CCN(C)CC2)cc1)n1ccnc1", "note": "(racemic) [Compound 44]", "LAD (lowest active dose)": 2.50}
